# Measured values as given in PubChem BioAssay AID1963869 (Molecular Pharmacology Branch, DTP, NCI, 2024).
# pIC50: −log10 of the molar value. “And” between values parts separate entries of the source, which are not always exact repeats. Equal entries are not always repeated.
# System: KRAS patient-derived spheroids with HUVEC/MSC, viability
# Experiment: Anticancer human tumor 323965-272-R-J2-PDC patient-derived pancreatic carcinoma cell line growth inhibition [KRAS2]
# Settings: for viability, T/C: stronger effect = lower value
# Excerpt: Multicellular complex tumor spheroid response to RAS pathway inhibitors in combination with a targeted agents in patient-derived cell lines with oncogenic KRAS variants from multiple cancer types
# A high-throughput screen of multi-cell type tumor spheroids was designed to identify active combinations of targeted small molecules and KRAS pathway inhibitors. Complex spheroids include a stromal component modeled by human endothelial cells (HUVEC) and fibroblasts modeled by human mesenchymal stem cells (MSCs). The concentration ranges selected for each drug and investigational agent were based upon clinically achievable concentrations if the clinical Cmax of the agent was known.
# Compounds. The drugs and investigational agents: BI-3406 (NSC825286), BAY-293 (NSC824723), batoprotafib (TNO155; NSC825523), sotorasib (AMG 510; NSC818433), MRTX1257 (NSC819558), elimusertib (BAY 1895344; NSC800525), molibresib (GSK525762; NSC774829), temuterkib (LY3214996; NSC803410), venetoclax (NSC766270), alisertib (NSC759677), olaparib (NSC753686), talazoparib (NSC767125), erdafitinib (NSC781556), ipatasertib (NSC767898), cabozantinib (NSC761068), nintedanib (NSC756659), abemaciclib (NSC768073), docetaxel (NSC628503), trametinib (NSC758246), and sapanisertib (NSC764658) were obtained from the National Cancer Institute (NCI) Developmental Therapeutics Program Chemical Repository. The FDA-approved anticancer drug set is available from the Developmental Therapeutics Program. […] The stock solutions were prepared in dimethyl sulfoxide (DMSO, Sigma-Aldrich, St. Louis, MO, cat. D2650) at 800-fold the tested concentration and stored at -70 degrees C prior to their use. All drugs and investigational agents were tested over a range starting from a high concentration at or near the clinical Cmax and decreasing in half-log increments. If the clinical Cmax for an agent had not been determined, the highest concentration tested was 10 microM.
# Cell Culture. All cells were maintained in an incubator at 37 degrees C and 5% CO2 with 95% humidity. The PDC lines were cultured according to standard operating procedures established by the NCI PDMR (https://pdmr.cancer.gov/sops/default.htm). Briefly, all PDCs were thawed and cultured in Matrigel-coated flasks prepared with a working solution of 1X Ham's F-12 nutrient mix, without supplementation (Invitrogen, Waltham, MA, cat. 11765054), 100 U/mL penicillin-streptomycin (Invitrogen, cat. 15140122), and 2.5% Matrigel (Corning Inc., Corning, NY, cat. 354248) for the first three passages. All PDCs were cultured in complete DMEM/F-12 media containing advanced DMEM/F-12 (Invitrogen, cat. 12634028), 4.9% defined fetal bovine serum, heat inactivated (HyClone Laboratories Inc., Logan, UT, cat. SH30070.03HI), 389 ng/mL hydrocortisone (Sigma-Aldrich, cat. H4001), 9.7 ng/mL human EGF recombinant protein (Invitrogen, cat. PHG0313), 23.4 microg/mL adenine (Sigma-Aldrich, cat. A2786), 97.3 U/mL penicillin-streptomycin (Invitrogen, cat. 15140122), 1.9 mM L-glutamine (Invitrogen, cat. 25030081), and 9.7 microM Y-27632 dihydrochloride (Tocris Bioscience, Bristol, United Kingdom, cat. 1254). The PDCs were cultured in complete DMEM/F12 media without 9.7 microM Y-27632 dihydrochloride for at least two passages prior to the screen. The established cell line HOP-62 was cultured in RPMI 1640 medium, HEPES (Invitrogen, cat. 22400105) with 10% defined fetal bovine serum (HyClone Laboratories Inc., cat. SH30070.03) and 2 mM L-glutamine (Invitrogen, cat. 25030081). The pooled donor HUVEC were cultured in endothelial cell growth medium 2 (PromoCell, Heidelberg, Germany, cat. C-22011) and the hMSC were cultured in mesenchymal stem cell growth medium 2 (PromoCell, cat. C-28009). For all experiments, HUVEC and hMSC were used at passages </=5, while the malignant cell lines were used at passages </=15. […]
# [1] = curve of first compound, second compound 0.1 µM
# [2] = curve of first compound, second compound 0.316 µM
# [3] = curve of first compound, second compound 1 µM
# [4] = curve of first compound, second compound 3.16 µM
# [5] = curve of first compound, second compound 10 µM
# [6] = second compound 0.1 µM, first compound 0.0316 µM
# [7] = second compound 0.1 µM, first compound 0.1 µM
# [8] = second compound 0.1 µM, first compound 0.316 µM
# [9] = second compound 0.1 µM, first compound 1 µM
# [10] = second compound 0.1 µM, first compound 3.16 µM
# [11] = second compound 0.1 µM, first compound 10 µM
# [12] = second compound 0.316 µM, first compound 0.0316 µM
# [13] = second compound 0.316 µM, first compound 0.1 µM
# [14] = second compound 0.316 µM, first compound 0.316 µM
# [15] = second compound 0.316 µM, first compound 1 µM
# [16] = second compound 0.316 µM, first compound 3.16 µM
# [17] = second compound 0.316 µM, first compound 10 µM
# [18] = second compound 1 µM, first compound 0.0316 µM
# [19] = second compound 1 µM, first compound 0.1 µM
# [20] = second compound 1 µM, first compound 0.316 µM
# [21] = second compound 1 µM, first compound 1 µM
# [22] = second compound 1 µM, first compound 3.16 µM
# [23] = second compound 1 µM, first compound 10 µM
# [24] = second compound 3.16 µM, first compound 0.0316 µM
# [25] = second compound 3.16 µM, first compound 0.1 µM
# [26] = second compound 3.16 µM, first compound 0.316 µM
# [27] = second compound 3.16 µM, first compound 1 µM
# [28] = second compound 3.16 µM, first compound 3.16 µM
# [29] = second compound 3.16 µM, first compound 10 µM
# [30] = second compound 10 µM, first compound 0.0316 µM
# [31] = second compound 10 µM, first compound 0.1 µM
# [32] = second compound 10 µM, first compound 0.316 µM
# [33] = second compound 10 µM, first compound 1 µM
# [34] = second compound 10 µM, first compound 3.16 µM
# [35] = second compound 10 µM, first compound 10 µM
# 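Note: spheroids exposed to agents for 7 days.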
# 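Throughout, for viability, T/C: 100% = DMSO vehicle control viability.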
smiles,measurement,setting,value
COC(=O)c1ccc2c(C(=Nc3ccc(N(C)C(=O)CN4CCN(C)CC4)cc3)c3ccccc3)c(O)[nH]c2c1 + CNCc1ccccc1-c1csc(C(C)Nc2nc(C)nc3cc(OC)c(OC)cc23)c1,pIC50,[1],< 5.00
same,pIC50,[2],< 5.00
same,pIC50,[3],< 5.00
same,pIC50,[4],< 5.00
same,pIC50,[5],> 7.50
same,"viability, T/C",[6],94.9%
same,"viability, T/C",[7],90%
same,"viability, T/C",[8],102%
same,"viability, T/C",[9],94.2%
same,"viability, T/C",[10],95.7%
same,"viability, T/C",[11],89.2%
same,"viability, T/C",[12],90.6%
same,"viability, T/C",[13],88.4%
same,"viability, T/C",[14],97%
same,"viability, T/C",[15],98.2%
same,"viability, T/C",[16],94.3%
same,"viability, T/C",[17],86.5%
same,"viability, T/C",[18],90.3%
same,"viability, T/C",[19],90.8%
same,"viability, T/C",[20],85.7%
same,"viability, T/C",[21],79.6%
same,"viability, T/C",[22],93.7%
same,"viability, T/C",[23],90.4%
same,"viability, T/C",[24],102%
same,"viability, T/C",[25],105%
same,"viability, T/C",[26],99.6%
same,"viability, T/C",[27],103%
same,"viability, T/C",[28],90%
same,"viability, T/C",[29],88.6%
same,"viability, T/C",[30],0.33%
same,"viability, T/C",[31],1.26%
same,"viability, T/C",[32],0.33%
same,"viability, T/C",[33],0.3%
same,"viability, T/C",[34],0.44%
same,"viability, T/C",[35],0.35%
CC(C)n1nc(-c2ccc3oc(N)nc3c2)c2c(N)ncnc21,"viability, T/C",compound 0.000316 µM,91% [middle of 5 runs]
same,"viability, T/C",compound 0.001 µM,81.3% [middle of 5 runs]
same,"viability, T/C",compound 0.00316 µM,54.4% [middle of 5 runs]
same,"viability, T/C",compound 0.01 µM,33.1% [middle of 5 runs]
same,"viability, T/C",compound 0.0316 µM,24.4% [middle of 5 runs]
same,"viability, T/C",compound 0.1 µM,21.4% [middle of 5 runs]
same,IC50,curve of compound,4 nM [middle of 5 runs]
CCNC(=O)CC1N=C(c2ccc(Cl)cc2)c2cc(OC)ccc2-n2c(C)nnc21 (stereo unspecified) + C=CC(=O)N1CCN(c2nc(=O)n(-c3c(C)ccnc3C(C)C)c3nc(-c4c(O)cccc4F)c(F)cc23)C(C)C1,pIC50,[1],6.94
same,pIC50,[2],6.87
same,pIC50,[3],7.29
same,pIC50,[4],6.95
same,pIC50,[5],> 7.50
same,"viability, T/C",[6],54.6%
same,"viability, T/C",[7],52.5%
same,"viability, T/C",[8],35.9%
same,"viability, T/C",[9],30.9%
same,"viability, T/C",[10],30%
same,"viability, T/C",[11],25.6%
same,"viability, T/C",[12],51.5%
same,"viability, T/C",[13],55.5%
same,"viability, T/C",[14],40%
same,"viability, T/C",[15],31%
same,"viability, T/C",[16],28.6%
same,"viability, T/C",[17],25.7%
same,"viability, T/C",[18],51.3%
same,"viability, T/C",[19],49.2%
same,"viability, T/C",[20],40%
same,"viability, T/C",[21],32.5%
same,"viability, T/C",[22],27.6%
same,"viability, T/C",[23],30.1%
same,"viability, T/C",[24],57.1%
same,"viability, T/C",[25],51.9%
same,"viability, T/C",[26],35.5%
same,"viability, T/C",[27],33.6%
same,"viability, T/C",[28],28.3%
same,"viability, T/C",[29],28.3%
same,"viability, T/C",[30],46.4%
same,"viability, T/C",[31],38.4%
same,"viability, T/C",[32],27.7%
same,"viability, T/C",[33],24.9%
same,"viability, T/C",[34],20.1%
same,"viability, T/C",[35],18.5%
Cn1ncnc1[C@H]1c2n[nH]c(=O)c3cc(F)cc(c23)N[C@@H]1c1ccc(F)cc1,"viability, T/C",compound 0.000316 µM,107% [middle of 4 runs]
same,"viability, T/C",compound 0.001 µM,104% [middle of 4 runs]
same,"viability, T/C",compound 0.00316 µM,109% (2×) and 98.1% and 107%
same,"viability, T/C",compound 0.01 µM,101% [middle of 4 runs]
same,"viability, T/C",compound 0.0316 µM,101% [middle of 4 runs]
same,"viability, T/C",compound 0.1 µM,89.2% [middle of 4 runs]
same,pIC50,curve of compound,< 7.00
CC(=O)OC12COC1CC(O)C1(C)C(=O)C(O)C3=C(C)C(OC(=O)C(O)C(NC(=O)OC(C)(C)C)c4ccccc4)CC(O)(C(OC(=O)c4ccccc4)C21)C3(C)C (stereo unspecified) + CC1OCC2(CCN(c3cnc(Sc4ccnc(N)c4Cl)c(N)n3)CC2)C1N,pIC50,[1],> 8.00
same,pIC50,[2],> 8.00
same,pIC50,[3],> 8.00
same,pIC50,[4],> 8.00
same,pIC50,[5],> 8.00
same,"viability, T/C","second compound 0.1 µM, first compound 0.01 µM",26.3%
same,"viability, T/C",[6],25.6%
same,"viability, T/C",[7],25.5%
same,"viability, T/C",[8],21.7%
same,"viability, T/C",[9],27%
same,"viability, T/C",[10],27.7%
same,"viability, T/C","second compound 0.316 µM, first compound 0.01 µM",23.8%
same,"viability, T/C",[12],23.9%
same,"viability, T/C",[13],21.3%
same,"viability, T/C",[14],19.8%
same,"viability, T/C",[15],23%
same,"viability, T/C",[16],23.5%
same,"viability, T/C","second compound 1 µM, first compound 0.01 µM",34.2%
same,"viability, T/C",[18],33.5%
same,"viability, T/C",[19],31.2%
same,"viability, T/C",[20],32.4%
same,"viability, T/C",[21],37.2%
same,"viability, T/C",[22],39.7%
same,"viability, T/C","second compound 3.16 µM, first compound 0.01 µM",16.9%
same,"viability, T/C",[24],16.3%
same,"viability, T/C",[25],14.8%
same,"viability, T/C",[26],14.1%
same,"viability, T/C",[27],15.2%
same,"viability, T/C",[28],17.2%
same,"viability, T/C","second compound 10 µM, first compound 0.01 µM",18.1%
same,"viability, T/C",[30],16.5%
same,"viability, T/C",[31],15.9%
same,"viability, T/C",[32],12.3%
same,"viability, T/C",[33],13.9%
same,"viability, T/C",[34],16.7%
CC1(C)CCC(CN2CCN(c3ccc(C(=O)NS(=O)(=O)c4ccc(NCC5CCOCC5)c([N+](=O)[O-])c4)c(Oc4cnc5[nH]ccc5c4)c3)CC2)=C(c2ccc(Cl)cc2)C1,"viability, T/C",compound 0.0316 µM,100% [middle of 5 runs]
same,"viability, T/C",compound 0.1 µM,94.9% [middle of 5 runs]
same,"viability, T/C",compound 0.316 µM,98% [middle of 5 runs]
same,"viability, T/C",compound 1 µM,96.1% [middle of 5 runs]
same,"viability, T/C",compound 3.16 µM,21% [middle of 5 runs]
same,"viability, T/C",compound 10 µM,7.62% [middle of 5 runs]
same,IC50,curve of compound,1.99 µM [middle of 5 runs]
